We go through two molecules from US11358931B2, “Selective androgen receptor modulators (SARMs) and uses thereof” (priority 2007, dated 2022).

Broadly, the half-life is the time in which the quantity being followed falls by half. What is called EC50 is the concentration giving half of the maximal effect. A lower EC50 goes with greater potency.

The nature of data set [1]: Metabolic stability in liver microsomes. Format: in vitro ADME. The following applies: rat liver microsomes, 37° C., pH 7.4, average of 2 experiments; read-out: half-life for degradation. How it is done: Liver microsomes are subcellular fractions that contain drug-metabolizing enzymes, such as cytochrome P450, flavin monooxygenases and UDP glucuronyl transferases. […] Rat liver microsomes are a commonly used animal model for determination of drug metabolism (e.g., see Shayeganpour et al., Drug Metab Dispos 34 (1): 43-50 (2006)).
The metabolism of Compound 102 was evaluated in rat liver microsomes. The metabolism was initiated by adding 25 μL of cofactor (100 mM of glucose 6-phosphate, 20 mM of NADP, […], and 63 mM of UDPGA) to wells containing 50 μL of 5 mg/mL of rat liver microsomes and 425 μL of 0.59 mM of Compound 102 made in 100 mM phosphate buffer (pH 7.4) at 37° C. At 0, 5, 10 and 20 minutes, a 60 μL aliquot of the sample was withdrawn. The unmetabolized test substance remaining in the sample was determined using HPLC and mass spectrometry and the half-life for degradation of the compound was calculated in minutes using curve fitting.

The subject of data set [2] is ovariectomized mature female rat. In words: In vivo assay, ovariectomized mature female rats (12 weeks). Particulars: for uterine weight to length ratio versus OVX controls: 0.03-3 mg/kg/day PO; for uterine weight to length ratio versus sham levels: high dose (3 mg/kg); for increase of gastrocnemius muscle mass / mean change in body weight: maximally effective dose 0.3 mg/kg PO; for clitoral weight, activity versus testosterone / clitoral gland weight versus sham: mid dose (0.3 mg/kg); for clitoral gland weight versus sham: 0.3 mg/kg. The source says:
In animal models of osteoporosis, androgens increase bone density and strength in male rats (Wakely et al., J Bone & Mineral Research 6: 325-330 (1991) and Vandenput et al., Calcified Tissue International 70: 170-175 (2002)) and female rats (Tobias et al., Am J Physiology 267: E853-E859 (1994) and Coxam et al., Bone 19: 107-114 (1996)). The ovariectomized mature female rat model was used to assess the effects of orally administered compounds provided herein, such as Compound 102, on bone as well as other efficacy and side-effect endpoints including muscle mass, fat mass and clitoral gland weight.
In this assay, approximately three-month old rats were acclimated in a vivarium for one week. After acclimation, rats were anesthetized with Avertin and the ovariectomy (OVX) was performed using the dorsal approach. For the sham procedure, the surgical procedure was conducted per protocol, and the ovaries exteriorized but not removed. After recovery, no further experimental manipulations were performed for seven weeks, at which point the rats were scanned by dual energy x-ray absorptiometry and sorted into experimental groups based upon femoral bone mineral content (BMC). Three dosages of Compound 102 were tested (0.03, 0.3 and 3 mg/kg/day PO). For comparison, ostarine, a known non-steroidal SARM, was tested at the same dosages (0.03, 0.3 and 3 mg/kg/day PO). In addition, reference compounds estradiol and testosterone were administered. Estradiol was administered subcutaneously to one ovariectomized group at a dose of 0.1 mg/kg/day and testosterone propionate was administered subcutaneously to another ovariectomized group at a dose of 1 mg/kg/day.
Treatment continued once daily for 12 weeks, at which point animals were euthanized and tissues were collected for further analysis. Animals received subcutaneous injections of fluorochrome markers for bone histomorphometric analysis. Alizarian Red S was prepared as a 3% solution and given at a dose of 30 mg/kg at the time of the baseline scan. Calcein was administered 10 days and 3 days prior to necropsy.
After the 14th dose, approximately 250 μL venous blood was collected via percutaneous jugular puncture from the rats at 0, 0.5, 1, 2, 4 and 6 hours post-dosing. The blood samples were collected into lithium-heparin tubes (Becton Dickinson, Franklin Lakes, N.J.). Plasma fractions were collected for pharmacokinetic analysis. Approximately 24 hours after the last dose, rats were sacrificed by cardiac exsanguination, and blood was collected into serum separator tubes (Becton Dickinson), and the gastrocnemius muscle, plantaris muscle, uterus, clitoral glands, clitoris and inguinal fat pads were isolated, blotted and weighed individually. Uterine weight measurements can be inaccurate in surgically ovariectomized rats due to the potential loss of uterine tissue at the tips of the uterine horns during removal of the ovaries. To minimize this variability, the length of the uterine horns was measured and the uterine weight was reported normalized to uterine length. The left femur and lumbar vertebra L5 were wrapped in saline-soaked gauze and stored at −20° C. for biochemical analysis. The right femur and lumbar vertebrae L3-L4 were collected and stored in 70% ethanol for histomorphometry. The right tibia was collected in formalin for histological analysis. The left tibia was collected on dry ice and stored at −20° C. for measurement of alkaline phosphatase activity.
Compound 102 and ostarine individually were formulated in a solution containing 5% Tween-80 polysorbate, 90% PEG-400 polyethylene glycol, and 5% polyvinylpyrrolidone K30. The mixture was stirred and sonicated in a water bath for 30 minutes until the compound dissolved into a solution. After sonication, 1% carboxymethyl cellulose (CMC) in water was added to the solution in a 9:1 ratio (9 parts CMC/water solution to 1 part PEG-400/Tween-80/PVP). Compound 102 and ostarine were administered orally in a volume of 4 mL/kg. […]

In data set [3] the target is hAR (Homo sapiens, UniProt P10275). In words: cell-based.
Sequence of hAR (P10275 whole entry): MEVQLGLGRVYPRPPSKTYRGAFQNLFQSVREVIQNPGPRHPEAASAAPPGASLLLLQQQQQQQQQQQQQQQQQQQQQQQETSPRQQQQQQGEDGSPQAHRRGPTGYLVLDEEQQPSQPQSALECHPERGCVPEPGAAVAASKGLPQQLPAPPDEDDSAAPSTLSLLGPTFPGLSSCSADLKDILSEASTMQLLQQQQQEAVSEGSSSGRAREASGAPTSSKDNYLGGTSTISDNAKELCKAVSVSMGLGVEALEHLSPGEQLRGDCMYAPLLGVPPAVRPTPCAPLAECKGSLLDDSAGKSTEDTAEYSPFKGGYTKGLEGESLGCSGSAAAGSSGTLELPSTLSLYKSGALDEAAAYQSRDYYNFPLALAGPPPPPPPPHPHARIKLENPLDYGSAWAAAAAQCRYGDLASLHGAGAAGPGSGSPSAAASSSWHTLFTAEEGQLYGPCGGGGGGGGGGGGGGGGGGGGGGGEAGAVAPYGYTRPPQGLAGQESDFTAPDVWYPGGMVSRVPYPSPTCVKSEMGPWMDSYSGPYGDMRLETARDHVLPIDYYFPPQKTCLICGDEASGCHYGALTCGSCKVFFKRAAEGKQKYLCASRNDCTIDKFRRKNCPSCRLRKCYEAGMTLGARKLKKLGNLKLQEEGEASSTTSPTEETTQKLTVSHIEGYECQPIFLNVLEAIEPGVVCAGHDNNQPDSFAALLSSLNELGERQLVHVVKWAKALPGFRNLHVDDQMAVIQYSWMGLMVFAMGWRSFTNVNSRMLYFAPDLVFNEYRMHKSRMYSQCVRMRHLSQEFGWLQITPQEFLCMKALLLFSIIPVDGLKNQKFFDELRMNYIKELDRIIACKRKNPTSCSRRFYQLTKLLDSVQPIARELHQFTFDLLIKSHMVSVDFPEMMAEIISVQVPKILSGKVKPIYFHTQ
[4] abbreviates: OVX rats, high dose (3 mg/kg/day PO).
[5] abbreviates: OVX rats, low dose (0.03 mg/kg/day PO).
Setting [6] is: OVX rats, 12 weeks, 3-point bending.

“Also recorded” adds a separate entry of the source.

In the case of `N#Cc1ccc(N2CCC[C@@H]2[C@@H](O)C(F)(F)F)cc1C(F)(F)F` [Compound 102, R,R-4-(2-(1-Hydroxyl-2,2,2-trifluoroethyl)-pyrrolidinyl)-2-trifluoromethyl-benzonitrile], in data set [1], the half-life at 0.5 mM was 44.5 min. Also, the “uterine weight to length ratio versus OVX controls” value in data set [2] was “increased uterine weight to length ratio above estrogen deficient OVX controls in a dose dependent manner”. Further, in data set [2] (OVX rats), the “uterine weight to length ratio versus sham levels” value is “significantly (P<0.01) increased above sham levels”; the “increase of gastrocnemius muscle mass” value is 17%; the “mean change in body weight” value was “+66 grams”; the “clitoral weight, activity versus testosterone” value is “significantly less activity versus testosterone”. The “clitoral gland weight versus sham” value in data set [2] (OVX rats) is reported as “only slightly above the sham level; also recorded: did not quite achieve statistical significance versus sham”. Also, in data set [2] (setting [4]), the clitoral gland weight result is reported as “increased clitoral gland weight” and the clitoral weight result is on record as “significantly increased clitoral weight”. The “increase of uterine weight to length ratio compared with ostarine” value in data set [2] (OVX rats, low and mid dose, P<0.01) is reported as “significantly less than ostarine”. Further, in data set [2] (setting [5]), the clitoral gland weight entry is listed as “Neither Compound 102 nor ostarine affected”, the clitoral weight entry was “did not affect clitoral weight” and the “uterine weight to length ratio versus sham operated controls” value is “significantly (P<0.01) less than sham operated controls”. The “uterine weight to length ratio versus sham operated controls” value in data set [2] (OVX rats, mid dose (0.3 mg/kg/day PO)) was “significantly (P<0.01) less than sham operated controls”. The EC50 in data set [3] was determined as 3.1 nM. Besides, in data set [3] (MDA-MB-453, read-out: efficacy relative to dihydrotestosterone (DHT)), the Emax is 59%.

For `C[C@](O)(COc1ccc(C#N)cc1)C(=O)Nc1ccc(C#N)c(C(F)(F)F)c1` [ostarine], in data set [2], the “uterine weight to length ratio versus OVX controls” value is “increased uterine weight to length ratio above estrogen deficient OVX controls in a dose dependent manner”. For the same molecule, the “alkaline phosphatase activity from isolated tibiae” value in data set [2] (OVX rats, 12 weeks) is “significantly increased”. In addition, in data set [2] (setting [6]), the “whole femur bending stiffness” value is recorded as “slightly more effectively than Compound 102” and the “whole femur bending strength” value is listed as “slightly less effectively than Compound 102”. Also, in data set [2] (OVX rats, 12 weeks, histomorphometry), the cortical bone area entry is listed as “increased cortical bone area”. Moreover, in data set [2] (OVX rats, 12 weeks, versus vehicle-treated OVX controls), the serum osteocalcin entry is “significantly suppressed”. The “body weight gain from baseline compared to vehicle” value in data set [2] (OVX rats, 12 weeks, Compound 102/ostarine 0.03, 0.3, 3 mg/kg/day PO, testosterone propionate 1 mg/kg/day s.c.) is “significantly increased weight gain compared to vehicle at the mid and high dose levels; also recorded: at the low dose there was no significant difference from vehicle”. Also, in data set [2] (OVX rats, 12 weeks, any dose, estradiol 0.1, testosterone propionate 1 mg/kg/day s.c.), the “inguinal fat pad weight” value is “neither Compound 102 nor ostarine significantly affected inguinal fat pad weight at any dose”. For the same molecule, in data set [2] (OVX rats), the “uterine weight to length ratio versus sham levels” value is “significantly (P<0.01) increased above sham levels”; the “increase of gastrocnemius muscle mass” value is reported as 10%; the “mean change in body weight” value is listed as “+65 grams”; the “clitoral weight, activity versus testosterone” value was “not significantly different from testosterone”. For the same molecule, the “clitoral gland weight versus sham” value in data set [2] (OVX rats) is “only slightly above the sham level; also recorded: statistically significant (P<0.05)”. For the same molecule, in data set [2] (setting [4]), the clitoral gland weight entry is given as “increased clitoral gland weight” and the clitoral weight entry is recorded as “significantly increased clitoral weight”. In data set [2] (setting [5]), the clitoral gland weight entry is recorded as “Neither Compound 102 nor ostarine affected”, the clitoral weight entry is “did not affect clitoral weight” and the “uterine weight to length ratio versus sham operated controls” value is “significantly (P<0.01) less than sham operated controls”.
